Three molecules from patent US12421242B2, “Substituted tetrahydropyrrolo-pyridinone compounds and their use in treating medical conditions” (Karuna Therapeutics, Inc., priority 2022, dated 2025) can be followed below.

Some results are limits rather than exact numbers.

In experiment [1] the target is T1, hM4 receptors (Homo sapiens, UniProt P08173).
T1 construct: expressed in transfected cells; host or cells: CHO cells
T1 sequence (P08173 1-479): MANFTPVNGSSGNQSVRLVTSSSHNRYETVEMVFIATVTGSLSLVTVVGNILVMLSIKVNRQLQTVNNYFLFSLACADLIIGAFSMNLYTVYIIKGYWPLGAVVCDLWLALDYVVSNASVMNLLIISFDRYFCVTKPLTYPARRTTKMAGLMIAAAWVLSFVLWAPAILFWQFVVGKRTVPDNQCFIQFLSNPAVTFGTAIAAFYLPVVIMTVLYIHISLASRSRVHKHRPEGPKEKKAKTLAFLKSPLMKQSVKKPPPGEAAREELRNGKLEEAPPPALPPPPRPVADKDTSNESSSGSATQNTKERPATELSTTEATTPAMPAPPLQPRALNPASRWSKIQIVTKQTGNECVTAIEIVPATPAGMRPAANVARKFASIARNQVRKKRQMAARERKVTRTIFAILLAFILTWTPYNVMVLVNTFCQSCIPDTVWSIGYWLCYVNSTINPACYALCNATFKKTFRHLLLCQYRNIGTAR
The experiment in a line: Human M4 PAM pERK assay. It counts as cell-based. The following applies: PAM mode. In outline:
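CHO cells expressing hM4 or rM4 were serum-starved 4 h, then given compound (ten-point curve, 10 μM top, duplicate) with an EC20 of acetylcholine (10 nM final) for 5 min at 37° C. Phospho-ERK in lysates was detected by TR-FRET.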

Experiment [2] deals with T2, human M4 receptor (Homo sapiens, UniProt P08173).
T2 construct: expressed in transfected cells
T2 sequence (P08173 1-479): T1 sequence (P08173 1-479)
The experiment in a line: M4 GTPγS PAM assay. The note with it: CHO-K1 membranes expressing human M4, with EC20 acetylcholine (40 nM). It counts as biochemical. The gist of the method:
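Membranes from CHO-K1 cells stably expressing human M4 preincubated 10-15 min with compound in HEPES/MgCl2/NaCl buffer with 0.1 µM GDP, then with EC20 acetylcholine (40 nM) for 10-15 min. [35S]GTPγS added for 1 h at room temperature; filter-bound radioactivity counted by scintillation.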

A word on the EC50: it is the concentration giving half of the maximal effect. High values mean a less potent agent, low ones a more potent agent. Turning to `Cc1c2c(n(C)c(=O)c1Cl)CN(C(=O)c1cnn(C(F)(F)F)c1)C2` [Compound I-1, 3-chloro-1,4-dimethyl-6-(1-(Trifluoromethyl)-1H-pyrazole-4-carbonyl)-1,5,6,7-tetrahydro-2H-pyrrolo[3,4-b]pyridin-2-one], the EC50 in experiment [1] is under 100 nM; in experiment [2] it was 100 to 500 nM.

As to `Cc1c2c(n(C)c(=O)c1Cl)CN(C(=O)c1cnn(C(F)(F)F)c1)[C@@H]2C` [Compound I-76, (R)-3-Chloro-1,4,5-trimethyl-6-(1-(trifluoromethyl)-1H-pyrazole-4-carbonyl)-1,5,6,7-tetrahydro-2H-pyrrolo[3,4-b]pyridin-2-one], the EC50 in experiment [1] and in experiment [2] was under 100 nM each time.

Take `COc1c2c(n(C)c(=O)c1C)CN(C(=O)c1cnn(C(F)(F)F)c1)C2` [Compound I-87]: the EC50 in experiment [1] is under 100 nM; in experiment [2], 100 to 500 nM.
